T1: Thermoascus aurantiacus ALKO4242 cellobiohydrolase Ta Cel7A (Ta CBH/Cel7A), recombinant, SEQ ID NO: 2 (Thermoascus aurantiacus, UniProt A7WNU2)
T1 sequence (A7WNU2 18-457): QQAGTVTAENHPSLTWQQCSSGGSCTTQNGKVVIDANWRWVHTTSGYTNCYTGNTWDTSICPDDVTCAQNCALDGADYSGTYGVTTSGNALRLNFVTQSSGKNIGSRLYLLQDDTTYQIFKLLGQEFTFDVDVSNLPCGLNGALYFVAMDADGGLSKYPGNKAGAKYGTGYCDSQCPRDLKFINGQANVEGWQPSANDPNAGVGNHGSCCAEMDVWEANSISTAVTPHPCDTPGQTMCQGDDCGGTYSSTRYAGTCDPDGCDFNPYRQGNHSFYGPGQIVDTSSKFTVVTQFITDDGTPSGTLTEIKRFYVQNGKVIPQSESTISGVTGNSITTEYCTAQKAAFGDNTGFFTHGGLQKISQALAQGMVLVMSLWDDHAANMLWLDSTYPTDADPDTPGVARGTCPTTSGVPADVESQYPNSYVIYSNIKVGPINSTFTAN

T2: Chaetomium thermophilum ALKO4265 cellobiohydrolase Ct Cel7A (Ct CBH/Cel7A), recombinant, SEQ ID NO: 8 (Thermochaetoides thermophila, UniProt A7WNU1)
T2 sequence (A7WNU1 19-532): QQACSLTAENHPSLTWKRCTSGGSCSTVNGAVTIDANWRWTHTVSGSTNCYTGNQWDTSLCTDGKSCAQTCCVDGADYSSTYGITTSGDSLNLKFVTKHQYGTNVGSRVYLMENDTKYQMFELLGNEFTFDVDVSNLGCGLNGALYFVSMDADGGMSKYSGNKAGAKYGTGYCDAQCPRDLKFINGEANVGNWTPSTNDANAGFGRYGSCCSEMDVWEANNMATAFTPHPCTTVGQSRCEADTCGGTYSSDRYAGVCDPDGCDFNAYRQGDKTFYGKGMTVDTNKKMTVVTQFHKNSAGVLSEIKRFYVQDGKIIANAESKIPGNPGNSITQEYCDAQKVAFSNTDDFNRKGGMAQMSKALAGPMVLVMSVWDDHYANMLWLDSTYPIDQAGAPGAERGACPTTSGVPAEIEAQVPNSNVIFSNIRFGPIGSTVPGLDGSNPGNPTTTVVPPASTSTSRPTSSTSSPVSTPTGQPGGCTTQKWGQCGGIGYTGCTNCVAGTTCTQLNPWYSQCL

T3: Acremonium thermophilum ALKO4245 cellobiohydrolase At Cel7A (At CBH/Cel7A), recombinant, SEQ ID NO: 6 (Phialemonium thermophilum, UniProt A7WNT9)
T3 sequence (A7WNT9 18-523): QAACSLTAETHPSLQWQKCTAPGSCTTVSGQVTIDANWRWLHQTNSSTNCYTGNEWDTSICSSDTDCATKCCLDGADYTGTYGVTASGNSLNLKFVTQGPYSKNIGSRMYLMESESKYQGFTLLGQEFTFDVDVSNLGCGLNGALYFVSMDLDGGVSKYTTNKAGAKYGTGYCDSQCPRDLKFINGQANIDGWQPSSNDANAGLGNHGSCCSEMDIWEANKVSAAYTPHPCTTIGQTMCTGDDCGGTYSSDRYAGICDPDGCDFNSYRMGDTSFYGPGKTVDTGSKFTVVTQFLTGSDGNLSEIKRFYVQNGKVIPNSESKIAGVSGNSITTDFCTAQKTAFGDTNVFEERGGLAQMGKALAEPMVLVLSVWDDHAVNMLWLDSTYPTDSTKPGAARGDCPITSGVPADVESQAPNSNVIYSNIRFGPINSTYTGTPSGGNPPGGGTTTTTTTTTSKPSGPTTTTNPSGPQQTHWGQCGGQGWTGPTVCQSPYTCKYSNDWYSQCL


Key:
Type in all cases: biochemical
[1] = target: Trichoderma reesei cellobiohydrolase I Tr Cel7A (Tr CBHI/Cel7A) (Trichoderma reesei, UniProt A0A024RXP8); assay: Cellobiose inhibition constant, CNPLac as substrate
Chain of Trichoderma reesei cellobiohydrolase I Tr Cel7A (Tr CBHI/Cel7A) (A0A024RXP8 18-514): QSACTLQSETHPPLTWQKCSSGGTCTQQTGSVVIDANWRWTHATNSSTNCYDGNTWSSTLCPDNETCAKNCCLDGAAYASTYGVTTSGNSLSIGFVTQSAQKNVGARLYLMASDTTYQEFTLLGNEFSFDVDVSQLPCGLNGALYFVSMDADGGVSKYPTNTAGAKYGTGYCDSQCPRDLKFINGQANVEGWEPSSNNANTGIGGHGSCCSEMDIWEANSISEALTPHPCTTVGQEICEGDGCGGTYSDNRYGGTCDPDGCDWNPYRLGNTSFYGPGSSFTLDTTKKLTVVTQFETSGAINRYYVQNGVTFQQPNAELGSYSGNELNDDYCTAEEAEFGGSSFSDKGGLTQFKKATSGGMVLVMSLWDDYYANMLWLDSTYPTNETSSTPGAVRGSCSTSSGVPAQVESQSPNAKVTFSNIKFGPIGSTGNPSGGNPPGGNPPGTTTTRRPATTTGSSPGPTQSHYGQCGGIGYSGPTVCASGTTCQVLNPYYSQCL
Method: (§1) The Michaelis-Menten and cellobiose inhibition constants were determined from the cellobiohydrolases produced heterologously in T. reesei (Examples 14 and 15). The enzymes were purified as described in Example 2. Protein concentrations of purified enzymes were measured by their absorption at 280 nm using a theoretical molar extinction co-efficient, which were calculated from the amino acid sequences (Gill and von Hippel, 1989).
(§2) Kinetic constants (Km and kcat values) and cellobiose inhibition constant (Ki) for Tr CBHI/Cel7A, Ta CBH/Cel7A, At CBH/Cel7A and Ct CBH/Cel7A, were measured using CNPLac (2-Chloro-4-nitrophenyl-β-D-lactoside) as substrate at ambient temperature (22° C.) in 50 mM sodium phosphate buffer, pH 5.7. For the determination of the inhibition constant (Ki), eight different substrate concentrations (31-4000 μM) in the presence of a range of five inhibitor concentrations (0-100 μM or 0-400 μM), which bracket the Ki value, were used. All experiments were performed in microtiter plates and the total reaction volume was 200 μl. The initial rates were in each case measured by continuous monitoring the release of the chloro-nitrophenolate anion (CNP, 2-Chloro-4-nitrophenolate) through measurements at 405 nm using Varioscan (Thermolabsystems) microtiter plate reader. The results were calculated from CNP standard curve (from 0 to 100 μM). Enzyme concentrations used were: Tr CBHI/Cel7A 2.46 μM, Ta CBH/Cel7A 1.58 μM, Ct CBH/Cel7A 0.79 μM and At CBH/Cel7A 3 μM. The Km and kcat constants were calculated from the fitting of the Michaelis-Menten equation using the programme of Origin. Lineweaver-Burk plots, replots (LWB slope versus [Glc2; cellobiose]) and Hanes plots were used to distinguish between competitive and mixed type inhibition and to determine the inhibition constants (Ki).

[2] = target: T1, Thermoascus aurantiacus ALKO4242 cellobiohydrolase Ta Cel7A (Ta CBH/Cel7A), recombinant, SEQ ID NO: 2; assay: as above
Method: as §1, §2

[3] = target: T2, Chaetomium thermophilum ALKO4265 cellobiohydrolase Ct Cel7A (Ct CBH/Cel7A), recombinant, SEQ ID NO: 8; assay: as above
Method: as §1, §2

[4] = target: T3, Acremonium thermophilum ALKO4245 cellobiohydrolase At Cel7A (At CBH/Cel7A), recombinant, SEQ ID NO: 6; assay: as above
Method: as §1, §2

[5] = pH optimum of heterologously produced β-glucosidases; details: McIlvaine's buffer, pH range 3.0-8.0, 4-nitrophenyl-β-D-glucopyranoside
Method: (§3) The pH optimum of the heterologously produced β-glucosidases was determined in the universal McIlvaine's buffer within a pH range of 3.0-8.0 using 4-nitrophenyl-β-D-glucopyranoside as substrate. The pH optima for the Acremonium βG—101, Chaetomium βG—76, and Thermoascus βG—81 are pH 4.5, 5.5, and 4.5, respectively (FIG. 7 A). The optimal temperature for enzymatic activity of these β-glucosidases was determined at the temperature range of 50-85° C. as described above. The highest activity of the enzymes was determined to be at 70° C., 65° C., and 75° C. for the Acremonium βG—101/Cel3A, Chaetomium βG—76/Cel3A, and Thermoascus βG—81/Cel3A, respectively (FIG. 7 B).

[6] = β-glucosidase activity on 4-nitrophenyl-β-D-glucopyranoside; details: purified β-glucosidase, 50° C.
Method: (§4) Acremonium Thermophilum ALKO4245 was grown as described in Example 1. The pure β-glucosidase was obtained by sequential purification with hydrophobic interaction and anion exchange chromatography followed by gel filtration. The β-glucosidase activity of the fractions collected during purification was determined using 4-nitrophenyl-β-D-glucopyranoside as substrate (Bailey and Linko, 1990). Protein content was measured by BioRad Assay Kit (Bio-Rad Laboratories) using bovine serum albumine as standard.
as §4, with “Thermoascus aurantiacus ALKO4242” for “Acremonium Thermophilum ALKO4245”, “interaction, anion” for “interaction”, “cation” for “anion”

[7] = Temperature optimum of heterologously produced β-glucosidases; details: temperature range 50-85° C., 60 min
Method: as §3

[8] = Thermal stability of purified β-glucosidase; details: 0.1 mg/ml BSA, pH 5.0, 60 min, 4-nitrophenyl-β-D-glucopyranoside
Method: (§5) Thermal stability of the purified β-glucosidase was determined at different temperatures. The reaction was performed in the presence of 0.1 mg/ml BSA at pH 5.0 for 60 min using 4-nitrophenyl-β-D-glucopyranoside as substrate. A. thermophilum βG—101 was stable up to 70° C. The Aspergillus reference enzyme (Novozym 188) retained 100% of activity up to 60°.
as §5, with “T. aurantiacus βG—81” for “A. thermophilum βG—101”, “75°” for “70°”, “60° C.” for “60°.”

Molecule	Ki [1]	Type of inhibition ([1]; Tr Cel7A (control), CNPLac substrate, 50 mM sodium phosphate pH 5.7, 22° C.)	Ki [2]	Type of inhibition ([2]; Ta Cel7A, CNPLac substrate, 50 mM sodium phosphate pH 5.7, 22° C.)	Ki [3]	Type of inhibition ([3]; Ct Cel7A, CNPLac substrate, 50 mM sodium phosphate pH 5.7, 22° C.)	Ki [4]	higher inhibition constant as compared to that of Tr CBHI/Cel7A ([4]; At CBH/Cel7A vs Tr CBHI/Cel7A, cellobiose)	Type of inhibition ([4]; At Cel7A, CNPLac substrate, 50 mM sodium phosphate pH 5.7, 22° C.)	pH optimum [5]	Specific activity on 4-nitrophenyl-β-D-glucopyranoside [6]	Temperature of highest activity [7]	Thermal stability: temperature up to which stable / 100% of activity retained [8]
OC[C@H]1O[C@@H](O[C@H]2[C@H](O)[C@@H](O)C(O)O[C@@H]2CO)[C@H](O)[C@@H](O)[C@@H]1O (stereo partly shown) [cellobiose]	19 µM	competitive	107 µM	competitive	39 µM	competitive	141 µM	over 7 fold	competitive	–	–	–	–
At βG_101: beta-glucosidase of Acremonium thermophilum ALKO4245, gene At cel3A, amino acid SEQ ID NO: 24 (protein) MRQALVSLALLASSPVSAARELATSDPFYPSPWMNPEANGWEDAYAKAKAFVSQLTLLEKVNLTTGIGWQGGQCVGNVGSVPRLGLRSLCMQDSPVGIRFGDYVSVFPSGQTTAATFDKGLMNRRGNAMGQEHKGKGVNVLLGPVAGPIGRTPEGGRNWEGFSPDPVLTGIALAETIKGIQDAGVIACAKHFIANEQEHFRQSGEAQGYGFDISESLSSNIDDKTMHELYLWPFADGVRAGVGAIMCSYNQINNSYGCQNSKTLNNLLKNELGFQGFVMSDWQAQHTGAASAVAGLDMTMPGDTSFNTGLSYWGTNLTLAVLNGTVPEYRIDDMVMRIMAAFFKTGQTLDLPPINFDSWTTDTFGPLHFAVNEDRQQINWHVNVQDNHGSLIREIAAKGTVLLKNTGSLPLNKPKFLVVVGDDAGPNPAGPNACPDRGCDVGTLGMAWGSGSANFPYLITPDAALQAQAIKDGTRYESVLSNYQLDQTKALVTQANATAIVFVNADSGEGYINVDGNEGDRKNLTLWHDGDALIKSVAGWNPNTIVVIHSTGPVLVTDWYDHPNITAILWAGVPGQESGNAITDVLYGKVNPSGRSPFTWGPTRESYGTDVLYTPNNGKGAPQQAFSEGVFIDYRHFDRTNASVIYEFGHGLSYTTFQYSNIQVVKSNAGAYKPTTGTTIPAPTFGSFSKDLKDYLFPSDQFRYITQYIYPYLNSTDPAKASLDPHYGKTAAEFLPPHALDSNPQPLLRSSGKNEPGGNRQLYDILYTVTADITNTGSIVGAEVPQLYVSLGGPDDPKVVLRGFDRIRIDPGKTAQFRVTLTRRDLSNWDPAIQDWVISKYPKKVYIGRSSRKLELSADLA	–	–	–	–	–	–	–	–	–	4.5	1100 nkat/mg	70 °C	up to 70 °C

— patent US8409836B2, “Treatment of cellulosic material and enzymes useful therein” (Roal Oy, priority 2005, dated 2013)
